According to patent US5244883A, “Nonapeptide bombesin antagonists” (The Administrators of the Tulane Educational Fund, priority 1990, dated 1993):
Where a SMILES comes first, the peptide text is derived from it. [ ]: non-standard residue; d: D form. The star is where a group is joined. His(τ-Bzl) = N[C@@H](Cc1cn(Cc2ccccc2)cn1)C(=O)O; X2 = CC(C)C[C@@H](CN[C@@H](CC(C)C)C(N)=O)N*; dTpi = O=C(O)[C@H]1Cc2c([nH]c3ccccc23)CN1

Target: T1, GRP receptors on Swiss 3T3 cells (Mus musculus, UniProt P21729)
T1 construct: conducted in 24-well tissue culture plates (GIBCO) using Swiss 3T3 cells; endogenous in cells; host or cells: Murine Swiss 3T3 fibroblasts (intact confluent, quiescent cells)
Test: Receptor binding assay: displacement of 125I-GRP(14-27) on Swiss 3T3 cells
Design: species or system Murine
Details: for Ka: association constant, N.D.=NO DISPLACEMENT; for Ka / Kd: 0.2 nM 125I-GRP(14-27), Swiss 3T3 cells, 37° C. 30 min; for IC50: calculated by Cheng and Prussoff equation IC50=Kc(1+L/Kh), 0.2 nM radioligand
Experimental: (A) Receptor Binding Assay
Binding of ^125 I-GRP(14-27) and displacement by bombesin antagonists were conducted in 24-well tissue culture plates (GIBCO) using Swiss 3T3 cells. Murine Swiss 3T3 fibroblasts were maintained by weekly passage in DMEM containing 10% FCBS and antimycotics. Cultures were incubated in 5% CO2 in air at 37° C. The wells were seeded with 10^5 cells/well (viability >95%), grown to confluence and quiescency. The binding procedure was conducted 7 days after seeding. The cells were washed 2 times with 0.5 ml of binding buffer (Dulbecco's modified Eagle's medium containing […] (pH 7.4), 0.2% BSA and 100 mcg/ml bacitracin). The cells were then incubated with 0.2 nM ^125 I-GRP (14-27) in the presence or absence of different concentrations of antagonists (6×10^-11 -6×10^-6 M, total volume 0.4 ml).
According to Zachary and Rozengurt (1985) and Layton et al., (1988), binding of ^125 I-GRP at 37° C. reached a maximum value at 30 min and decreased afterwards; so, the cells were incubated at 37° C. for 30 min. After that, the cells were washed 2 times with ice-cold (4° C.) binding buffer and 2 times with the ice-cold phosphate-buffered saline (PBS,mM): NaCl 138, KCl 2.8, Na2 HPO4 8, KH2 PO4 1.45, CaCl2 0.91, MgCl2 0.49. Washed cultures were extracted in 0.5 ml of 0.5M NaOH and transferred to tubes for counting. The wells were washed once with 0.5 ml distilled water (sterile), and the washing were added to the appropriate tubes. Then the radio-activity of the samples was counted in an automatic gamma counter (Micromedic System, Inc., Huntsville, Ala.).
The Ligand - PC computerized curve fitting program of Munson and Rodbard was used to determine the types of receptor binding, dissociation constant (Kd), association constant (Ka), the maximal binding capacity of receptors (Bmax) and half-maximal inhibition (IC50).
IC50 values represent concentrations of antagonists causing half-maximal inhibition of 0.2 nM GRP(14-27) stimulated growth. Dissociation constant and maximal binding capacity of ^125 I-GRP (14-27) in our experiments were 1.32 nm and 0.769 pm/mg protein, respectively, which were similar to those reported for ^125 I-GRP and ^125 I-Tyr^4 -bombesin. Binding characteristics of GRP receptors on 3T3 cells in these experiments agree well with values obtained for bombesin binding to pancreatic acinar (Jensen et al., 1978) and pituitary cells (Westendorf and Schonbrunn, 1983).
IC50 is the concentration of unlabelled ligand that displaced half the specific radioligand binding. It is calculated according to the equation of Cheng and Prussoff (1973): IC50 =Kc (1+L/Kh), where Kc and Kh are the dissociation constants of unlabelled (cold) and labelled (hot) ligand respectively, and L is the concentration of radioligand used.

T1 sequence (P21729 whole entry): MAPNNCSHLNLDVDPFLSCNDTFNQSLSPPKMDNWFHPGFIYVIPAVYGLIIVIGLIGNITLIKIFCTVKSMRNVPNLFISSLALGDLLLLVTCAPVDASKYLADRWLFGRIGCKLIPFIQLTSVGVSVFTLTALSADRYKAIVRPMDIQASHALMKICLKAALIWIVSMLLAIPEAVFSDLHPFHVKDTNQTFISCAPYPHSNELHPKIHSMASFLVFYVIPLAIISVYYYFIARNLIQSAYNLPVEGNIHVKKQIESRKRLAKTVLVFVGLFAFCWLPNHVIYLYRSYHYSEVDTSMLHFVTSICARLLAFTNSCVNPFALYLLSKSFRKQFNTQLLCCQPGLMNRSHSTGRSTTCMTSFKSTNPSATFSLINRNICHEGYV

Structure (SMILES): CSCC[C@H](NC(=O)[C@H](CC(C)C)NC(=O)[C@H](Cc1c[nH]cn1)NC(=O)CNC(=O)[C@@H](NC(=O)[C@H](C)NC(=O)[C@H](Cc1c[nH]c2ccccc12)NC(=O)[C@H](Cc1c[nH]cn1)NC(=O)[C@H](CC(N)=O)NC(=O)CNC(=O)[C@H](CCCNC(=N)N)NC(=O)[C@@H]1CCCN1C(=O)[C@H](Cc1ccc(O)cc1)NC(=O)[C@@H](N)CCSC)C(C)C)C(N)=O [125I-GRP (14-27), reference compound]
- maximal binding capacity of 125I-GRP(14-27) (radioligand on Swiss 3T3 cells): 0.769 pm/mg protein

Structure (SMILES): CSCC[C@H](NC(=O)[C@H](CC(C)C)NC(=O)[C@H](Cc1c[nH]cn1)NC(=O)CNC(=O)[C@@H](NC(=O)[C@H](C)NC(=O)[C@H](Cc1c[nH]c2ccccc12)NC(=O)[C@H](Cc1c[nH]cn1)NC(=O)[C@H](CC(N)=O)NC(=O)CNC(=O)[C@H](CCCNC(=N)N)NC(=O)[C@@H]1CCCN1C(=O)[C@H](Cc1ccc(O)cc1)NC(=O)[C@@H](N)CCSC)C(C)C)C(N)=O [GRP(14-27), reference compound]
- Ka: 0.758 ± 0.23 nM⁻¹

Structure (SMILES): CC(C)C[C@@H](CN[C@@H](CC(C)C)C(N)=O)NC(=O)[C@H](Cc1c[nH]cn1)NC(=O)CNC(=O)[C@@H](NC(=O)[C@H](C)NC(=O)[C@H](Cc1c[nH]c2ccccc12)NC(=O)[C@H](CCC(N)=O)NC(=O)[C@H](N)Cc1c[nH]c2ccccc12)C(C)C [Peptide 2, D--Trp--Gln--Trp--Ala--Val--Gly--His--Leu-psi-Leu--NH2]
- Kd: 10.6 nM
- IC50: 12.2 nM

Structure (SMILES): CC(C)C[C@@H](CN[C@@H](CC(C)C)C(N)=O)NC(=O)[C@H](Cc1c[nH]cn1)NC(=O)CNC(=O)[C@@H](NC(=O)[C@H](C)NC(=O)[C@H](Cc1c[nH]c2ccccc12)NC(=O)[C@H](CCC(N)=O)NC(=O)[C@H]1Cc2c([nH]c3ccccc23)CN1)C(C)C [Peptide 5, D--Tpi--Gln--Trp--Ala--Val--Gly--His--Leu-psi-Leu--NH2]
- Kd: 8 nM
- IC50: 9.2 nM

Structure (SMILES): CC(C)C[C@@H](CN[C@@H](CC(C)C)C(N)=O)NC(=O)[C@H](Cc1c[nH]cn1)NC(=O)CNC(=O)[C@@H](NC(=O)[C@H](C)NC(=O)[C@H](Cc1c[nH]c2ccccc12)NC(=O)[C@H](Cc1cn(Cc2ccccc2)cn1)NC(=O)[C@H]1Cc2c([nH]c3ccccc23)CN1)C(C)C [Peptide 8, D--Tpi--His(Bz)--Trp--Ala--Val--Gly--His--Leu-psi-Leu--NH2] (H-[dTpi][His(τ-Bzl)]WAVGH-X2)
- Ka: 0.014 nM⁻¹

Structure (SMILES): CC(C)C[C@@H](CN[C@@H](Cc1ccccc1)C(N)=O)NC(=O)[C@H](Cc1c[nH]cn1)NC(=O)CNC(=O)[C@@H](NC(=O)[C@H](C)NC(=O)[C@H](Cc1c[nH]c2ccccc12)NC(=O)[C@H](CCC(N)=O)NC(=O)[C@H](N)Cc1c[nH]c2ccccc12)C(C)C [Peptide 10, D--Trp--Gln--Trp--Ala--Val--Gly--His--Leu-psi-Phe--NH2]
- Kd: 1 nM
- IC50: 1.15 nM

Structure (SMILES): CNC(=O)CC[C@H](NC(=O)[C@H](N)Cc1c[nH]c2ccccc12)C(=O)N[C@@H](Cc1c[nH]c2ccccc12)C(=O)N[C@@H](C)C(=O)N[C@H](C(=O)NCC(=O)N[C@@H](Cc1c[nH]cn1)C(=O)N[C@H](CN[C@@H](Cc1ccccc1)C(N)=O)CC(C)C)C(C)C [Peptide 11, D--Trp--Glu(MeNH)--Trp--Ala--Val--Gly--His--Leu-psi-Phe--NH2]
- Kd: 5 nM
- IC50: 5.75 nM

Structure (SMILES): CC(C)C[C@@H](CN[C@@H](Cc1ccccc1)C(N)=O)NC(=O)[C@H](Cc1c[nH]cn1)NC(=O)CNC(=O)[C@@H](NC(=O)[C@H](C)NC(=O)[C@H](Cc1c[nH]c2ccccc12)NC(=O)[C@H](CCC(N)=O)NC(=O)[C@H]1Cc2c([nH]c3ccccc23)CN1)C(C)C [Peptide 12, D--Tpi--Gln--Trp--Ala--Val--Gly--His--Leu-psi-Phe--NH2] (HELM PEPTIDE1{[O=C([C@H]1Cc2c([nH]c3ccccc23)CN1)[*:2]].Q.W.A.V.G.H.[CC(C)C[C@@H](CN[C@@H](Cc1ccccc1)C(N)=O)N[*:1]]}$$$$V2.0)
- Ka: 0.014 nM⁻¹

Structure (SMILES): CC(C)C[C@@H](CN1Cc2[nH]c3ccccc3c2C[C@H]1C(N)=O)NC(=O)[C@H](Cc1c[nH]cn1)NC(=O)CNC(=O)[C@@H](NC(=O)[C@H](C)NC(=O)[C@H](Cc1c[nH]c2ccccc12)NC(=O)[C@H](CCC(N)=O)NC(=O)[C@H](N)Cc1ccccc1)C(C)C [Peptide 17, D--Phe--Gln--Trp--Ala--Val--Gly--His--Leu-psi-Tpi--NH2]
- Kd: 1 nM
- IC50: 1.2 nM

Structure (SMILES): CC(C)C[C@@H](CN1Cc2[nH]c3ccccc3c2C[C@H]1C(N)=O)NC(=O)[C@H](Cc1c[nH]cn1)NC(=O)CNC(=O)[C@@H](NC(=O)[C@H](C)NC(=O)[C@H](Cc1c[nH]c2ccccc12)NC(=O)[C@H](CCC(N)=O)NC(=O)[C@H](N)Cc1c[nH]c2ccccc12)C(C)C [Peptide 18, D--Trp--Gln--Trp--Ala--Val--Gly--His--Leu-psi-Tpi--NH2]
- Kd: 4 nM
- IC50: 4.6 nM

Structure (SMILES): CC(C)C[C@@H](CN1Cc2[nH]c3ccccc3c2C[C@H]1C(N)=O)NC(=O)[C@H](Cc1c[nH]cn1)NC(=O)CNC(=O)[C@@H](NC(=O)[C@H](C)NC(=O)[C@H](Cc1c[nH]c2ccccc12)NC(=O)[C@H](CCC(N)=O)NC(=O)[C@@H]1Cc2c([nH]c3ccccc23)CN1)C(C)C [Peptide 22, Tpi--Gln--Trp--Ala--Val--Gly--His--Leu-psi-Tpi--NH2]
- Kd: 0.9 nM
- IC50: 1.14 nM

Structure (SMILES): CC(C)C[C@@H](CN1Cc2[nH]c3ccccc3c2C[C@H]1C(N)=O)NC(=O)[C@H](Cc1c[nH]cn1)NC(=O)CNC(=O)[C@@H](NC(=O)[C@H](C)NC(=O)[C@H](Cc1c[nH]c2ccccc12)NC(=O)[C@H](CCC(N)=O)NC(=O)[C@H]1Cc2c([nH]c3ccccc23)CN1)C(C)C [Peptide 26, D--Tpi--Gln--Trp--Ala--Val--Gly--His--Leu-psi-Tpi--NH2]
- Kd: 22 nM
- IC50: 25.3 nM

Structure (SMILES): COc1ccc(CCC(=O)N[C@@H](CCC(N)=O)C(=O)N[C@@H](Cc2c[nH]c3ccccc23)C(=O)N[C@@H](C)C(=O)N[C@H](C(=O)NCC(=O)N[C@@H](Cc2c[nH]cn2)C(=O)N[C@H](CN[C@@H](Cc2c[nH]c3ccccc23)C(N)=O)CC(C)C)C(C)C)cc1 [Peptide 27, Mpp--Gln--Trp--Ala--Val--Gly--His--Leu-psi-Trp--NH2] (HELM PEPTIDE1{[COc1ccc(CCC(=O)[*:2])cc1].Q.W.A.V.G.H.[CC(C)C[C@@H](CN[C@@H](Cc1c[nH]c2ccccc12)C(N)=O)N[*:1]]}$$$$V2.0)
- Ka: 0.013 nM⁻¹

Structure (SMILES): CC(C)C[C@@H](CN[C@@H](Cc1c[nH]c2ccccc12)C(N)=O)NC(=O)[C@H](Cc1c[nH]cn1)NC(=O)CNC(=O)[C@@H](NC(=O)[C@H](C)NC(=O)[C@H](Cc1c[nH]c2ccccc12)NC(=O)[C@H](CCC(N)=O)NC(=O)[C@H](N)Cc1ccccc1)C(C)C [Peptide 28, D--Phe--Gln--Trp--Ala--Val--Gly--His--Leu-psi-Trp--NH2]
- Kd: 8 nM
- IC50: 9.16 nM

Structure (SMILES): CC(C)C[C@@H](CN[C@@H](Cc1c[nH]c2ccccc12)C(N)=O)NC(=O)[C@H](Cc1c[nH]cn1)NC(=O)CNC(=O)[C@@H](NC(=O)[C@H](C)NC(=O)[C@H](Cc1c[nH]c2ccccc12)NC(=O)[C@H](CCC(N)=O)NC(=O)[C@H](N)Cc1c[nH]c2ccccc12)C(C)C [Peptide 29, D--Trp--Gln--Trp--Ala--Val--Gly--His--Leu-psi-Trp--NH2]
- Kd: 526 nM
- IC50: 605 nM

Structure (SMILES): CC(C)C[C@@H](CN[C@@H](Cc1c[nH]c2ccccc12)C(N)=O)NC(=O)[C@H](Cc1c[nH]cn1)NC(=O)CNC(=O)[C@@H](NC(=O)[C@H](C)NC(=O)[C@H](Cc1c[nH]c2ccccc12)NC(=O)[C@H](CCC(N)=O)NC(=O)[C@H]1Cc2c([nH]c3ccccc23)CN1)C(C)C [Peptide 30, D--Tpi--Gln--Trp--Ala--Val--Gly--His--Leu-psi-Trp--NH2]
- Kd: 4 nM
- IC50: 5.15 nM
